Like-named read-outs stand apart in the source and are kept apart here.

Holding throughout (assay): Post-emergence action against weeds, greenhouse pot test, visual scoring
Holding throughout (format): in vivo

For test [1], the system named is Avena fatua (AVEFA). As to conditions: 504 h, read-out: % activity found. On the procedure:
(§1) Seeds or rhizome pieces of mono- and dicotyledonous harmful and useful plants were placed in peat pots (diameter 4 cm) filled with sandy loam and then covered with soil. The pots were kept in a greenhouse under optimum conditions. In addition, harmful plants encountered in paddy rice cultivation were cultivated in pots with a water level 2 cm above the soil surface.
(§2) About three weeks after the start of the cultivation, the test plants were treated at the 2- to 3-leaf stage. The herbicides, formulated as powder or liquid concentrates, were, either alone or in the combinations according to the invention, sprayed in various dosages on to the green parts of the plants using an application rate of 600 l of water/ha (converted). For further cultivation of the plants, the pots were then again kept under optimum conditions in a greenhouse.
(§3) The visual scoring of the herbicidal effects was carried out in intervals up to 21 days after the treatment. Scoring was carried out in percent in comparison to the untreated control plants. 0%=no herbicidal activity, 100%=complete herbicidal activity=complete kill.
(§4) The percentages from the treatments with the herbicides alone (=individual application) and with the combinations according to the invention (=mixtures) were employed to calculate interactions using the method of Colby. When the observed efficacies of the mixtures exceed the formal sum of the values of the tests with individual applications, they also exceed the expected value according to Colby, which is calculated using the formula below (cf. S. R. Colby; in Weeds 15 (1967) pp. 20 to 22): E=A+B−(A×B/100)
(§5) Here: • A, B=activity of components A and B in percent at a dosage of a and b g of ai/ha (=gramm of active substance per hectare), respectively. • E=expected value in % at a dosage of a+b g of ai/ha. Results
(§6) The combinations according to the invention of herbicides from group (A) with herbicides from group (B) were tested on a broad spectrum of important harmful plants (weed grasses, broad-leaved weeds/Cyperaceae) and useful plants: Triticum aestivum (TRZAS), Stellaria media (STEME), Lolium multiflorum (LOLMU), Veronica persica (VERPE), Alopecurus myosuroides (ALOMY), Matricaria inodora (MATIN), Brassica napus (BRSNW), Viola tricolor (VIOTR), Avena fatua (AVEFA), Amaranthus retroflexus (AMARE), Zea mays (ZEAMX), Pharbitis purpurea (PHBPU), Setaria viridis (SETVI), Fallopia (ex Polygonum) convolvulus (POLCO), Echinochloa crus-galli (ECHCG), Abuthilon theophrasti (ABUTH), Cyperus esculentus (CYPES), Oryza sativa (ORYSA).
(§7) Of particular interest are the results shown in the tables (Tab.) below, where the following key is used: • (1) EPPO code (former Bayer code) for the treated plant (see above) • (2) Time of scoring: DAT (days after treatment) • (3) Component A tested (identifying number) • (4) Component B tested (identifying number) • (5) Dosage component A [g of ai/ha] • (6) Dosage component B [g of ai/ha] • (7) % activity found • (8) E value (calculated according to Colby; see above) • (9) Comments: “SYNERGY”=synergistic interaction (E value<% activity found); “SAFENING”=safener action on useful plant (E value>% activity found)

Test [2] relates to Cyperus esculentus (CYPES). As to conditions: 504 h, read-out: % activity found. On the procedure:
as §1, §2, §3, §4, §5, §6, §7

Test [3] has as its system Matricaria inodora (MATIN). Particulars: Tripleurospermum inodorum, 504 h, read-out: % activity found. As for the experimental part:
as §1, §2, §3, §4, §5, §6, §7

In test [4] the test system is Oryza sativa (ORYSA). Particulars: read-out: % activity found; for inhibition at 4 g/ha: dosage 4 g of ai/ha; for inhibition at 12 g/ha: dosage 12 g of ai/ha. On the procedure:
as §1, §2, §3, §4, §5, §6, §7

Test [5] deals with Triticum aestivum (TRZAS). Particulars: read-out: % activity found; for inhibition at 12 g/ha: dosage 12 g of ai/ha. As for the experimental part: as §1, §2, §3, §4, §5, §6, §7
In test [6] the test system is Viola tricolor (VIOTR). Particulars: 240 h, read-out: % activity found. On the procedure: as §1, §2, §3, §4, §5, §6, §7
Test [7] relates to Zea mays (ZEAMX). As to conditions: read-out: % activity found; for inhibition at 4 g/ha: dosage 4 g of ai/ha. On the procedure: as §1, §2, §3, §4, §5, §6, §7
Test [8] relates to Lolium multiflorum (LOLMU). As to conditions: read-out: % activity found; for inhibition at 4 g/ha: dosage 4 g of ai/ha. As for the experimental part:
as §1, §2, §3, §4, §5, §6, §7

Where [9] appears, read: 240 h, 10 DAT, dosage 12 g of ai/ha.
Setting [10] is: 504 h, 21 DAT, dosage 12 g of ai/ha.

On to `CCOC(=O)COc1ncccc1Oc1cc(-n2c(=O)cc(C(F)(F)F)n(C)c2=O)c(F)cc1Cl` [B4-6, ethyl [[3-[2-chloro-5-[3,6-dihydro-3-methyl-2,6-dioxo-4-(trifluoromethyl)-1(2H)-pyrimidinyl]-4-fluorophenoxy]-2-pyridinyl]oxy]acetate, reference compound], for which the inhibition at 3 g/ha in test [1] amounted to 0%; in test [4] (240 h), 40%; in test [5] (504 h), 30%; in test [6], 10%; in test [7] (240 h) it was 40%; in test [7] (504 h), 30%. The inhibition at 9 g/ha in test [2] was 20%; in test [3] it was 80%; in test [4] (240 h), 40%; in test [5] (240 h) it was 50%; in test [6] it was 85%.
With `COc1cc(OC)nc(Oc2cccc(Oc3nc(OC)cc(OC)n3)c2C(=O)O)n1` [B2-1, sodium 2,6-bis[(4,6-dimethoxy-2-pyrimidinyl)oxy]benzoate, reference compound], the inhibition at 12 g/ha in test [8] (240 h) worked out at 40%; in test [8] (504 h) it was 20%; in test [7] (240 h), 40%; in test [7] (504 h) it was 0%. In addition, the inhibition at 36 g/ha in test [8] (504 h) amounted to 70%; in test [4] (504 h), 70%; in test [7] (240 h), 40%; in test [7] (504 h), 0%.
Turning to `COc1nc(OC)nc(C(=O)c2cccc(F)c2N(C)S(=O)(=O)C(F)F)n1` [A-1], the inhibition at 4 g/ha was determined as 10% in test [1] (21 DAT, dosage 4 g of ai/ha); 80% in test [2] (21 DAT, dosage 4 g of ai/ha); 0% in test [8] (240 h, 10 DAT); 0% in test [8] (504 h, 21 DAT); 50% in test [3] (21 DAT, dosage 4 g of ai/ha); 10% in test [4] (240 h, 10 DAT). In addition, the inhibition at 4 g/ha in test [4] (504 h, 21 DAT) stood at 0%; in test [5] (240 h, 10 DAT, dosage 4 g of ai/ha), 0%; in test [6] (10 DAT, dosage 4 g of ai/ha) it was 20%; in test [7] (240 h, 10 DAT), 0%; in test [7] (504 h, 21 DAT) it was 0%. For the same compound, the inhibition at 12 g/ha was 30% in test [1] (21 DAT, dosage 12 g of ai/ha); 10% in test [8] (setting [9]); 10% in test [8] (setting [10]); 10% in test [4] (240 h, 10 DAT); 10% in test [4] (504 h, 21 DAT); 0% in test [5] (240 h, 10 DAT). For the same compound, the inhibition at 12 g/ha in test [5] (504 h, 21 DAT) turned out to be 0%; in test [6] (10 DAT, dosage 12 g of ai/ha), 20%; in test [7] (setting [9]) it was 0%; in test [7] (setting [10]), 0%.

Source of the values: US8158559B2, “Herbicidal combination comprising dimethoxytriazinyl-substituted difluoromethanesulfonylanilides” (Bayer Cropscience AG, priority 2008, dated 2012).
